In US12274702B2, “Nasal compositions comprising alcaftadine” (ALKEM LABORATORIES LIMITED, priority 2021, dated 2025):

Assays:
[1] = Pharmacokinetics after intranasal administration in rabbits; format: in vivo, New Zealand white rabbits
Procedure: The pharmacokinetic profiles for Example 1A, 1B and 1C as well as an olapatdine nasal formulation were each determined on 6 male New Zealand white rabbits. The olopatadine nasal formulation (0.6% w/v) was prepared from Olopat Max® 0.7% w/v, where Olopat Max® was diluted to 0.6% w/v by using purified water.
(§1) The study was carried out on total 24 male New Zealand white rabbits, which were segregated into four groups (G1 to G4, 6 rabbits/group). Mild anaesthesia was induced in all rabbits by inhalation of 2% isoflurane. Three groups (G1-G3) of anaesthetized rabbits were intranasally administered 250 μL of alcaftadine once daily using the formulations of Examples 1A, 1B, and 1C. A comparator, 250 μL of olopatadine at a concentration of 0.6% w/v, was intranasally administered once-daily to a fourth group G4 of anaesthetized rabbits.
Sampling details for the test and reference formulations: Approximately 0.5 mL of blood sample from each rabbit was withdrawn via marginal car vein into pre-labelled Eppendorf tubes containing 10% EDTA as an anticoagulant. Blood samples were withdrawn at 0 min, 5 min, 10 min, 15 min, 30 min, 60 min, 120 min, 240 min, 480 min and 1440 min after administration of test and reference formulations.
(§2) Procedure for sample preparation: Collected blood samples were mixed gently and kept on crushed ice. Plasma samples were separated after centrifugation at 3500 rpm for 10 min at 4° C. Plasma separation was carried out within 30 min of sample collection and stored at −70±10° C. The animals were euthanized by intravenous administration of sodium thiopental injection overdose and nasal epithelium was collected. Half of the tissues of nasal epithelium were homogenized using phosphate buffered solution (20% homogenation) for quantification of alcaftadine and olopatidine. The remaining half of the tissues were stored in 10% neutral buffered formalin for detailed gross histopathological examination such as necrosis, inflammation or any changes during necropsy.
Rabbit plasma and nasal epithelial tissue concentrations of alcaftadine or olopatidine were determined using a fit-for-purpose LC-MS/MS method with LLOQ of 0.500 ng/ml or 0.250 ng/mL, respectively. The pharmacokinetic parameters were evaluated using Phoenix WinNonlin® Ent-Version 8.0 by non-compartmental analysis.

[2] = Nasal irritation and histopathology of nasal epithelium after intranasal administration in rabbits; format: in vivo, New Zealand white rabbits; details: doses 0.312 mg, 0.625 mg and 1.25 mg, all three groups
Procedure: as §1, §2

[3] = single intranasal administration, doses 0.625 to 1.25 mg, rabbits

| area under the curve (AUC0-24h) [1, 3] | peak plasma concentrations (Cmax) [1, 3] | time to achieve maximum concentration (Tmax) ([1]; single intranasal instillation, dose 0.625 mg (250 μL of Example 1B), rabbit plasma) | Tmax ([1]; male, New Zealand white, inhaled or intranasal, single intranasal administration of 1.5 mg (250 μL, 0.6% w/v), rabbit plasma, read-out: time to reach peak concentration (Tmax)) | Compound | plasma concentration / systemic exposure ([1]; intranasal, rabbits) | onset of action versus intranasal olopatadine (from Tmax) ([1]; intranasal, rabbits, olopatadine 1.5 mg) | signs or symptoms of inflammation or irritation [2] |
| --- | --- | --- | --- | --- | --- | --- | --- |
| dose proportional | dose proportional | 4.8 min |  | CN1CCC(=C2c3ccccc3CCn3c(C=O)cnc32)CC1 [Alcaftadine, 6,11-dihydro-11-(1-methyl-4-piperidinylidene)-5H-imidazo[2,1-b][3]benzazepine-3-carboxaldehyde] | dose proportional with overall low systemic exposure | faster onset of action than intranasal olopatadine | no signs or symptoms of inflammation or irritation were observed |
|  |  |  | 22.8 min | CN(C)CC/C=C1/c2ccccc2COc2ccc(CC(=O)O)cc21 [olopatadine] |  |  |  |
